From US20080276327A1, “Methods and Compositions Related to Delivery of Chemical Compounds to Invertebrate Embryos” (UNIVERSITY OF UTAH RESEARCH FOUNDATION, priority 2004, published 2008)

Test system: Drosophila embryos
Experiment: DMSO dose-response, development and hatching of Drosophila embryos
Assay type: in vivo
Procedure: Initial studies examined the toxicity of DMSO in Drosophila embryos.
First it was shown that DMSO was not deleterious to normal embryonic development.
Broad dilution series were made of DMSO in PBS. Approximately 50 eggs were placed in each well of a 96 well plate containing these solutions. They were placed at 18° C. or at 25° C. and hatched offspring were counted at the end of embryonic development (36 hours at 18° and 24 hours at 25°). […] 100% of eggs produced normal larvae at concentrations as high as 5% in PBS, pH 7.2. At 7.5% DMSO the percentage declined dramatically to approximately 50% and by 10% DMSO, the percentage hatching was only ˜10%.

`C[S+](C)[O-]` [DMSO] was tested, and the percentage hatching (7.5% DMSO in PBS) was “Approximately 50%”, the percentage hatching (10% DMSO in PBS) was about 10% and the “eggs that produced normal larvae” value (DMSO as high as 5% in PBS, pH 7.2) was 100%. The “embryos in which normal development occurs” value (concentrations of DMSO as high as 5%) was 100%, the “concentrations of DMSO at which embryonic development proceeds normally to eclosion” value (dose-response curves) was at most 5 % v/v and the “percentages surviving at 25° compared with 18°” value (solutions above 5% DMSO) was “always less than those kept at 18°”.
